For 26 molecules, IC50 results are on record in patent publication US20230382889A1 (Volastra Therapeutics, Inc., priority 2022, published 2023).

Sequence of hKIF18A (1-374) (Q8NI77 1-374): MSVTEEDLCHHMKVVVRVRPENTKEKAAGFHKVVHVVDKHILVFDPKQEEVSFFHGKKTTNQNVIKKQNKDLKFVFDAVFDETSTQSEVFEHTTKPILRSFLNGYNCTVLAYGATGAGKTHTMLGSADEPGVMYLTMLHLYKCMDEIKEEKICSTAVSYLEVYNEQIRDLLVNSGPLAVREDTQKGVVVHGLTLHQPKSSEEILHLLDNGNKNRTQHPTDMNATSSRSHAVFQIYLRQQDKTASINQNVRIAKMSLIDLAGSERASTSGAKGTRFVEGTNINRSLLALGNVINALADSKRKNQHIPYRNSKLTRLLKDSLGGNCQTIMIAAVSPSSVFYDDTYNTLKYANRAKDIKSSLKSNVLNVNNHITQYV

The target in the experiment is hKIF18A (1-374) (Homo sapiens (Human), UniProt Q8NI77). The experiment is described as follows: Inhibition of KIF18A microtubule-dependent ATPase activity (ADP-Glo). The format is biochemical. To be noted: 4 nM hKIF18A (1-374). Here is the method:
Test compounds were plated in a 3× dilution scheme in a 384-well plate. Assay buffer: 80 mM PIPES (pH 6.9), 1 mM MgCl2, 75 mM KCl, 1 mM EGTA, 1 mM DTT, 0.01% BSA, 0.005% Tween-20, 1 μM Taxol in H2O. […] After incubation at room temperature for 30 min, 2.5 μL of microtubule mix was added [0.2 mg/mL pre-formed microtubules, 2.0 mM ATP in assay buffer], the plate was centrifuged for 30 s and then incubated at 28° C. for 60 min. 5 μL of Promega® ADP-Glo Max R1 was added, the plate was centrifuged for 30 s, and the mixture incubated for 4 h at room temperature. 10 μL of Promega® ADP-Glo Max R2 was added, the plate centrifuged for 30 s, and incubated for 60 min at room temperature. Luminescence was measured with an Envision plate reader, and % Inhibition was calculated for each well as: ([max−min]−[test−min])/[max−min]. IC50 values were calculated from concentration vs. % Inhibition data via a four-parameter variable slope model.
With `CC(C)(C)NS(=O)(=O)c1cccc(-c2cn(-c3ccc(NS(C)(=O)=O)cc3N3CCC4(CC3)CC4)nn2)c1` [Compound 12, N-(tert-butyl)-3-(1-(4-(methylsulfonamido)-2-(6-azaspiro[2.5]octan-6-yl)phenyl)-1H-1,2,3-triazol-4-yl)benzenesulfonamide], the IC50 worked out at 9.1 nM.
The molecule `O=S(=O)(CCO)Nc1cc(N2CCC3(CC2)CC3)c(-n2cc(-c3cncc(N4CCC(F)(F)CC4)n3)nn2)cc1F` [Compound 144, N-(4-(4-(6-(4,4-difluoropiperidin-1-yl)pyrazin-2-yl)-1H-1,2,3-triazol-1-yl)-2-fluoro-5-(6-azaspiro[2.5]octan-6-yl)phenyl)-2-hydroxyethane-1-sulfonamide] came in with an IC50 of 2.8 nM.
The same measure for `CS(=O)(=O)Nc1ccc(-n2cc(-c3cccc(N4CCOCC4)n3)nn2)c(N2CCC3(CC2)CC3)c1` [Compound 54, N-(4-(4-(6-morpholinopyridin-2-yl)-1H-1,2,3-triazol-1-yl)-3-(6-azaspiro[2.5]octan-6-yl)phenyl)methanesulfonamide]: 8.3 nM.
The same measure for `CC(C)(C)NS(=O)(=O)c1cccc(-c2cn(-c3ccc(NS(=O)(=O)C4(CO)CC4)cc3N3CCC4(CC3)CC4)nn2)c1` [Compound 122, N-(tert-butyl)-3-(1-(4-((1-(hydroxymethyl)cyclopropane)-1-sulfonamido)-2-(6-azaspiro[2.5]octan-6-yl)phenyl)-1H-1,2,3-triazol-4-yl)benzenesulfonamide]: 18 nM; for `Cc1cc(-c2cn(-c3ccc(NS(=O)(=O)CCO)cc3N3CCC4(CC3)CC4)nn2)nc(CN2CC(F)(F)C2)n1` [Compound 152, N-(4-(4-(2-((3,3-difluoroazetidin-1-yl)methyl)-6-methylpyrimidin-4-yl)-1H-1,2,3-triazol-1-yl)-3-(6-azaspiro[2.5]octan-6-yl)phenyl)-2-hydroxyethane-1-sulfonamide]: 14 nM.
Consider `O=S(=O)(CCO)Nc1ccc(-n2cc(-c3ccc(F)c(N4CCCCO4)n3)nn2)c(N2CCC3(CC2)CC3)c1` [Compound 154, N-(4-(4-(5-fluoro-6-(1,2-oxazinan-2-yl)pyridin-2-yl)-1H-1,2,3-triazol-1-yl)-3-(6-azaspiro[2.5]octan-6-yl)phenyl)-2-hydroxyethane-1-sulfonamide], for which half-maximal inhibition (IC50) was put at 7.1 nM.
The same measure for `CS(=O)(=O)Nc1ccc(-n2cc(-c3csc(N4CCC(F)(F)CC4)n3)nn2)c(N2CCC3(CC2)CC3)c1` [Compound 50, N-(4-(4-(2-(4,4-difluoropiperidin-1-yl)thiazol-4-yl)-1H-1,2,3-triazol-1-yl)-3-(6-azaspiro[2.5]octan-6-yl)phenyl)methanesulfonamide]: 7.2 nM; for `Cc1cc(-c2cn(-c3ccc(NS(=O)(=O)CCO)cc3N3CCC4(CC4)C3)nn2)nc(N2CCC(F)(F)CC2)n1` [Compound 88, N-(4-(4-(2-(4,4-difluoropiperidin-1-yl)-6-methylpyrimidin-4-yl)-1H-1,2,3-triazol-1-yl)-3-(5-azaspiro[2.4]heptan-5-yl)phenyl)-2-hydroxyethane-1-sulfonamide]: 120 nM.
`CS(=O)(=O)Nc1ccc(-n2cc(-c3ccn(C4CCC(F)(F)CC4)n3)nn2)c(N2CCC3(CC2)CC3)c1` [Compound 41, N-(4-(4-(1-(4,4-difluorocyclohexyl)-1H-pyrazol-3-yl)-1H-1,2,3-triazol-1-yl)-3-(6-azaspiro[2.5]octan-6-yl)phenyl)methanesulfonamide] yielded an IC50 of 16 nM.
Molecule `CS(=O)(=O)Nc1ccc(-n2cc(-c3cccc(N4CCC(F)(F)CC4)n3)nn2)c(N2CCC(C(F)(F)F)CC2)c1` [Compound 20, N-(4-(4-(6-(4,4-difluoropiperidin-1-yl)pyridin-2-yl)-1H-1,2,3-triazol-1-yl)-3-(4-(trifluoromethyl)piperidin-1-yl)phenyl)methanesulfonamide] showed an IC50 of 23 nM.
Regarding `CC1CN(c2cccc(-c3cn(-c4ccc(NS(C)(=O)=O)cc4N4CCC5(CC4)CC5)nn3)n2)CCO1` (centres unmarked) [Compound 56, N-(4-(4-(6-(2-methylmorpholino)pyridin-2-yl)-1H-1,2,3-triazol-1-yl)-3-(6-azaspiro[2.5]octan-6-yl)phenyl)methanesulfonamide], half-maximal inhibition (IC50) required 13 nM.
Turning to `Cc1cc(-c2cn(-c3ccc(NS(C)(=O)=O)cc3N3CCC4(CC3)CC4)nn2)nc(N2CCC(F)(F)CC2)n1` [Compound 21, N-(4-(4-(2-(4,4-difluoropiperidin-1-yl)-6-methylpyrimidin-4-yl)-1H-1,2,3-triazol-1-yl)-3-(6-azaspiro[2.5]octan-6-yl)phenyl)methanesulfonamide], half-maximal inhibition (IC50) was put at 32 nM.
For “N-(4-(4-(2-((3S,4R)-3,4-difluoropyrrolidin-1-yl)-6-methylpyrimidin-4-yl)-1H-1,2,3-triazol-1-yl)-3-(6-azaspiro[2.5]octan-6-yl)phenyl)-2-hydroxyethane-1-sulfonamide [Compound 107]”, the IC50 came to 16 nM. Against the preceding molecule, the IC50 is about 2-fold lower.
The same measure for `CS(=O)(=O)Nc1ccc(-n2cc(-c3cccc(N4CCC(F)(F)CC4)n3)nn2)c(N2CCCC2)c1` [Compound 16, N-(4-(4-(6-(4,4-difluoropiperidin-1-yl)pyridin-2-yl)-1H-1,2,3-triazol-1-yl)-3-(pyrrolidin-1-yl)phenyl)methanesulfonamide]: 1100 nM; for `CS(=O)(=O)Nc1ccc(-n2cc(-c3cccc4c3OC3(CCCCC3)O4)nn2)c(N2CCC3(CC2)CC3)c1` [Compound 128, N-(3-(6-azaspiro[2.5]octan-6-yl)-4-(4-(spiro[benzo[d][1,3]dioxole-2,1′-cyclohexan]-4-yl)-1H-1,2,3-triazol-1-yl)phenyl)methanesulfonamide]: 98 nM.
Consider `CC1CCN(c2cc(NS(C)(=O)=O)ccc2-n2cc(-c3cccc(N4CCC(F)(F)CC4)n3)nn2)CC1` [Compound 18, N-(4-(4-(6-(4,4-difluoropiperidin-1-yl)pyridin-2-yl)-1H-1,2,3-triazol-1-yl)-3-(4-methylpiperidin-1-yl)phenyl)methanesulfonamide], for which the IC50 was found to be 8.7 nM.
The same measure for `O=S(=O)(Nc1ccc(-n2cc(-c3ccc(F)c(N4CCC(F)(F)CC4)n3)nn2)c(N2CCCCC2)c1)C1(CO)CC1` [Compound 157, N-(4-(4-(6-(4,4-difluoropiperidin-1-yl)-5-fluoropyridin-2-yl)-1H-1,2,3-triazol-1-yl)-3-(piperidin-1-yl)phenyl)-1-(hydroxymethyl)cyclopropane-1-sulfonamide]: 21 nM.
The same measure for `Cc1ncc(-c2cn(-c3ccc(NS(=O)(=O)CCO)cc3N3CCC4(CC3)CC4)nn2)nc1C1=CCCC1` [Compound 161, N-(4-(4-(6-(cyclopent-1-en-1-yl)-5-methylpyrazin-2-yl)-1H-1,2,3-triazol-1-yl)-3-(6-azaspiro[2.5]octan-6-yl)phenyl)-2-hydroxyethane-1-sulfonamide]: 63 nM.
The same measure for `O=S(=O)(CCO)Nc1ccc(-n2cc(-c3ccn(C4CCC4)n3)nn2)c(N2CCC3(CC2)CC3)c1` [Compound 82, N-(4-(4-(1-cyclobutyl-1H-pyrazol-3-yl)-1H-1,2,3-triazol-1-yl)-3-(6-azaspiro[2.5]octan-6-yl)phenyl)-2-hydroxyethane-1-sulfonamide]: 60 nM; for `CC(C)(C)NS(=O)(=O)c1cccc(-c2cnc(-c3ccc(NS(C)(=O)=O)cc3N3CCC4(CC3)CC4)[nH]2)c1` [Compound 34, N-(tert-butyl)-3-(2-(4-(methylsulfonamido)-2-(6-azaspiro[2.5]octan-6-yl)phenyl)-1H-imidazol-5-yl)benzenesulfonamide]: 74 nM; for `c1cc(-c2nnc(-c3cccnc3N3CCC4(CC3)CC4)[nH]2)nc(N2CCOCC2)c1` [Compound 4, 4-(6-(5-(2-(6-azaspiro[2.5]octan-6-yl)pyridin-3-yl)-4H-1,2,4-triazol-3-yl)pyridin-2-yl)morpholine]: 5600 nM.
`O=S(=O)(CCO)Nc1ccc(-n2cc(-c3ccc(C(O)C4CCCC4)o3)nn2)c(N2CCC3(CC2)CC3)c1` (centres unmarked) [Compound 51, N-(4-(4-(5-(cyclopentyl(hydroxy)methyl)furan-2-yl)-1H-1,2,3-triazol-1-yl)-3-(6-azaspiro[2.5]octan-6-yl)phenyl)-2-hydroxyethane-1-sulfonamide] yielded an IC50 of 2.8 nM.
For `CS(=O)(=O)Nc1ccc(-c2ncc(-c3cccc(N4CC(F)(F)C4)n3)[nH]2)c(N2CCC3(CC2)CC3)c1` [Compound 33, N-(4-(5-(6-(3,3-difluoroazetidin-1-yl)pyridin-2-yl)-1H-imidazol-2-yl)-3-(6-azaspiro[2.5]octan-6-yl)phenyl)methanesulfonamide], the IC50 was determined as 36 nM.
In turn, `Cc1cc(-n2cc(-c3ccc(NS(=O)(=O)CCO)cc3N3CCC4(CC3)CC4)nn2)cc(N2CCC(F)(F)CC2)n1` [Compound 114] yielded an IC50 of 58 nM.
The same measure for `CCS(=O)(=O)Nc1ccc(-n2cc(-c3ccc(F)c(S(=O)(=O)NC(C)(C)C)c3)nn2)c(N2CCC3(CC2)CC3)c1` [Compound 120, N-(tert-butyl)-5-(1-(4-(ethylsulfonamido)-2-(6-azaspiro[2.5]octan-6-yl)phenyl)-1H-1,2,3-triazol-4-yl)-2-fluorobenzenesulfonamide]: 19 nM; for `CS(=O)(=O)Nc1ccc(-n2cc(-c3nc(N4CCC(F)(F)CC4)ns3)nn2)c(N2CCC3(CC2)CC3)c1` [Compound 135, N-(4-(4-(3-(4,4-difluoropiperidin-1-yl)-1,2,4-thiadiazol-5-yl)-1H-1,2,3-triazol-1-yl)-3-(6-azaspiro[2.5]octan-6-yl)phenyl)methanesulfonamide]: 150 nM.
